Source: US12600696B2 (XENIOPRO GMBH, priority 2017, dated 2026)

Tested on: HL-60 cells (human acute myeloid leukemia cells)
Assay: alamarBlue proliferation assay with HL-60 cells
Assay type: cell-based
Settings: 120 h, 5 days, relative to DMSO baseline level of 1.0, read-out: AVEw, weighted arithmetic mean of normalized fluorescence intensity values (Activity Range), HL-60 proliferation
Method: The antiproliferative activities of compounds falling under formula I, formula II, formula III, formula IV and formula V were investigated on cells or cell lines originating from a disorder of the myeloid cell compartment, the neuroendocrine system, the cervix, and the mucosal epithelium, as well as from the skin epithelium. To this end, HL-60 cells, TT cells, HeLa cells, CAL-27 cells and human primary epidermal keratinocytes (HPEK) were seeded into 96-well plates suitable for fluorescence assays (CORNING #3598) at following initial cell numbers: 1000 cells per well for HL-60; 9000 cells per well for TT; 2000 cells per well for HeLa, 2000 cells per well for CAL-27, 2000 cells per well for HPEK. The cells were treated with compounds at indicated final concentrations (diluted from the 1000× stock-solutions in DMSO to a final DMSO concentration of 0.1% v/v) or with the empty carrier DMSO at 0.1% v/v as control for 5 days. At day 5 after starting the treatments the cells were subjected to the alamarBlue® Proliferation Assay (Bio-Rad Serotec GmbH, BUF012B) according to the protocol of the manufacturer. The readout was taken with a multi-well plate-reader in the fluorescence mode with applying a filter for excitation at 560 nm (band width 10 nm) and for emission at 590 nm (band width 10 nm). Resveratrol (RES) treatment was included as control for growth inhibition.
The assays were performed in duplicate or more replicates of independent single experiments each containing a six-fold replicate for every condition. For every individual plate, the measured fluorescence intensity values of the conditions with compound treatment were normalized against the corresponding equally weighted arithmetic mean of the fluorescence intensity values of the six DMSO treated control wells in order to obtain the relative values to a baseline level of 1.0. The statistical calculations were performed in analogy to the luciferase assay as described above. To this end, two independent outlier analyses were performed according to the methods by Peirce and Chauvenet (Ross, Journal of Engineering Technology 2003, 1-12). Outliers confirmed by at least one of the methods were excluded from the calculations but not more than one value out of six per compound within a single experiment. The weighted arithmetic mean AVEw for each compound was calculated from the normalized values over all independent replicates of the single experiments comprising the six replicates each. The corresponding standard deviation for the weighted arithmetic mean was calculated according to the method described by Bronstein et al. (Bronstein, Semendjajew, Musiol, Mühlig, Taschenbuch der Mathematik, 5th edition 2001 (German), publisher: Verlag Harri Deutsch, Frankfurt am Main and Thun) and was combined with the Gauß′ error propagation associated with the performed calculation for the normalization. The resulting standard deviation is herein referred to as “combined standard deviation”.
HL-60 cells were cultivated according to the protocol of the provider in RPMI 1640 medium (Fisherscientific, #11554526) containing 10% fetal bovine serum (Fisherscientific, #15517589).
A compound is considered as a growth inhibitor of HL-60 cells, if—at a reference concentration of 20 μM—the weighted arithmetic mean of the normalized fluorescence intensity values after addition of the corresponding combined standard deviation amounts to 0.9 or lower, in particular to 0.8 or lower, 0.7 or lower, 0.6 or lower, 0.4 or lower, and 0.2 or lower, relative to the overall basis level of 1.0. The overall basis level was calculated as the weighted arithmetic mean of all normalized values from the DMSO control measurements in analogy to the calculations performed for the test-compounds. The corresponding combined standard deviation for the DMSO values amounts to less than 1·10^−2.

SMILES | activity at 20 µM
CCC(C)(C)c1ccc(Oc2ccc(C(N)=O)cn2)cc1 [Compound 248, 6-(4-(tert-pentyl)phenoxy)nicotinamide] | 80 to 90%
CN(C)C(=O)c1ccc(Oc2ccc(C3(C(F)(F)C(F)(F)F)CC3)cc2)cc1 [Compound 785, N,N-dimethyl-4-(4-(1-(perfluoroethyl)cyclopropyl)phenoxy)benzamide] | 70 to 80%
CCOC(=O)c1ccc(Oc2ccc(C3(C(F)(F)F)CC3)cc2)c(F)c1 [Compound 723, ethyl 3-fluoro-4-(4-(1-(trifluoromethyl)cyclopropyl)phenoxy)benzoate] | 80 to 90%
O=C(O)c1ccc(Oc2ccc(C3(C(F)(F)F)CC3)cc2Cl)nc1 [Compound 738, 6-(2-chloro-4-(1-(trifluoromethyl)cyclopropyl)phenoxy)nicotinic acid] | 80 to 90%
NC(=O)c1ccc(Oc2ccc(C3(C(F)(F)F)CC3)cc2)nc1 [Compound 793, 6-(4-(1-(trifluoromethyl)cyclopropyl)phenoxy)nicotinamide] | 80 to 90%
CCc1ccc(Oc2ccc(C(=O)NO)cc2)cc1 [Compound 165, 4-(4-ethylphenoxy)-N-hydroxybenzamide] | 80 to 90%
CNC(=O)c1cnc(Oc2ccc(C34CC5CC(CC(C5)C3)C4)cc2)c(F)c1 [Compound 674, 6-(4-((3r,5r,7r)-adamantan-1-yl)phenoxy)-5-fluoro-N-methylnicotinamide] | 70 to 80%
CCOC(=O)c1ccc(Oc2ccc(C3(C(F)(F)F)CC3)cc2Cl)nc1 [Compound 756, ethyl 6-(2-chloro-4-(1-(trifluoromethyl)cyclopropyl)phenoxy)nicotinate] | 70 to 80%
CCOC(=O)c1cnc(Oc2ccc(C(C)(C)CC)cc2)c(F)c1 [Compound 477, ethyl 5-fluoro-6-(4-(tert-pentyl)phenoxy)nicotinate] | 80 to 90%
CN(C)C(=O)c1cnc(Oc2ccc(C34CC5CC(CC(C5)C3)C4)cc2)c(F)c1 [Compound 700, 6-(4-((3r,5r,7r)-adamantan-1-yl)phenoxy)-5-fluoro-N,N-dimethylnicotinamide] | 60 to 70%
CN(C)C(=O)c1ccc(Oc2ccc(C3(C(F)(F)F)CC3)cc2Cl)cc1 [Compound 792, 4-(2-chloro-4-(1-(trifluoromethyl)cyclopropyl)phenoxy)-N,N-dimethylbenzamide] | 80 to 90%
CCCCCc1ccc(Oc2ccc(C(N)=O)cn2)cc1 [Compound 245, 6-(4-pentylphenoxy)nicotinamide] | 80 to 90%
CCCCc1ccc(Oc2ccc(C(=O)N(C)C)cc2)cc1 [Compound 218, 4-(4-butylphenoxy)-N,N-dimethylbenzamide] | 40 to 60%
CN(C)C(=O)c1ccc(Oc2ccc(C3(C(F)(F)F)CC3)cc2)c(F)c1 [Compound 786, 3-fluoro-N,N-dimethyl-4-(4-(1-(trifluoromethyl)cyclopropyl)phenoxy)benzamide] | 70 to 80%
CCc1ccc(Oc2ccc(C(=O)O)cc2)cc1 [Compound 002, 4-(4-ethylphenoxy)benzoic acid] | 80 to 90%
CCCCCc1ccc(Oc2ccc(C(=O)N(C)C)cn2)cc1 [Compound 320, N,N-dimethyl-6-(4-pentylphenoxy)nicotinamide] | 40 to 60%

SMILES | activity at 20 µM
O=C(O)c1ccc(Oc2ccc(C3CC4CCC3CC4)cc2)nc1 (stereo not shown) [Compound 087, 6-(4-((1s,4s)-bicyclo[2.2.2]octan-2-yl)phenoxy)nicotinic acid] | 80 to 90%
CCC(C)(C)c1ccc(Oc2ncc(C(=O)N(C)C)cc2F)cc1 [Compound 685, 5-fluoro-N,N-dimethyl-6-(4-(tert-pentyl)phenoxy)nicotinamide] | 70 to 80%
CCOC(=O)c1cnc(Oc2ccc(C3CCCCC3)cc2)c(F)c1 [Compound 488, ethyl 6-(4-cyclohexylphenoxy)-5-fluoronicotinate] | 70 to 80%
O=C(O)c1cnc(Oc2ccc(C(F)(F)F)cc2)c(F)c1 [Compound 427, 5-fluoro-6-(4-(trifluoromethyl)phenoxy)nicotinic acid] | 80 to 90%
CNC(=O)c1ccc(Oc2ccc(C3(C(F)(F)F)CC3)cc2)nc1 [Compound 811] | 80 to 90%
CCC(C)(C)c1ccc(Oc2ccc(C(=O)N(C)C)cc2F)cc1 [Compound 581, 3-fluoro-N,N-dimethyl-4-(4-(tert-pentyl)phenoxy)benzamide] | 70 to 80%
CCOC(=O)c1ccc(Oc2ccc(C34CC5CC(CC(C5)C3)C4)cc2)c(F)c1 [Compound 414, ethyl 4-(4-((3r,5r,7r)-adamantan-1-yl)phenoxy)-3-fluorobenzoate] | 60 to 70%
CCC(C)(C)c1ccc(Oc2ccc(C(=O)NC)cn2)cc1 [Compound 298, N-methyl-6-(4-(tert-pentyl)phenoxy)nicotinamide] | 80 to 90%
CN(C)C(=O)c1ccc(Oc2ccc(C3(C(F)(F)C(F)(F)F)CC3)cc2)nc1 [Compound 821, N,N-dimethyl-6-(4-(1-(perfluoroethyl)cyclopropyl)phenoxy)nicotinamide] | 60 to 70%
CN(C)C(=O)c1ccc(Oc2ccc(C3CCCCC3)cc2)c(F)c1 [Compound 592, 4-(4-cyclohexylphenoxy)-3-fluoro-N,N-dimethylbenzamide] | 80 to 90%
CCOC(=O)c1cnc(Oc2ccc(C34CC5CC(CC(C5)C3)C4)cc2)c(F)c1 [Compound 492, ethyl 6-(4-((3r,5r,7r)-adamantan-1-yl)phenoxy)-5-fluoronicotinate] | 60 to 70%
CCC(C)(C)c1ccc(Oc2ccc(C(=O)N(C)C)cc2)cc1 [Compound 223, N,N-dimethyl-4-(4-(tert-pentyl)phenoxy)benzamide] | 70 to 80%
COC(=O)c1ccc(Oc2ccc(C3(C(F)(F)C(F)(F)F)CC3)cc2)nc1 [Compound 740, methyl 6-(4-(1-(perfluoroethyl)cyclopropyl)phenoxy)nicotinate] | 80 to 90%
COC(=O)c1ccc(Oc2ccc(C3(C(F)(F)F)CC3)cc2)nc1 [Compound 739, methyl 6-(4-(1-(trifluoromethyl)cyclopropyl)phenoxy)nicotinate] | 80 to 90%
CCOC(=O)c1ccc(Oc2ccc(C(C)C)cc2)cc1 [Compound 054, ethyl 4-(4-isopropylphenoxy)benzoate] | 80 to 90%
